Columns and labels:
Assay type in all cases: in vivo
[1] = system: Zymoseptoria tritici strain Zt 20; assay: In planta preventive efficacy on wheat cv. Alixan against Zymoseptoria tritici strain Zt 20; conditions: % of length of 2nd leaf blade, preventive 24 h
Description: (§1) A series of experiments were conducted to evaluate the efficacy of flumetylsulforim (ADF-16) for treating different strains of Zymoseptoria tritici in comparison with commercially available fungicides. Table 1 describes the Z. tritici strains used in this study and Table 2 describes the fungicides used in this study.
(§2) Winter wheat plants cv. Alixan (Limagrain) at the BBCH 12 growth stage were treated preventively with sterile distilled water (control), ADF-16, penthiopyrad, metconazole or tebuconazole at the rates described in Table 2 with a hand sprayer at 2 bars.
(§3) After treatment, wheat plants were left to dry at room temperature for 1 hour and then placed in a climatic chamber: temperature of 24 °C day/18 °C night-photoperiod of 16 h light/8 h dark and a relative humidity of 65%.
(§4) Untreated or treated whole wheat plants were inoculated 24-hours post-treatment with a calibrated pycnospore suspension of Z. tritici strains Zt StA, Zt 61, Zt 99, Zt 20, Zt 19-52, and Zt 38-02. Three replicates (pots) of 6 wheat plants each were used for each condition tested.
(§5) After inoculation, pots were transferred in a climatic chamber: temperature of 20 °C day/17 °C night—photoperiod of 16 h light/8 h dark and controlled relative humidity.
(§6) Disease assessments were carried out at 15 days post inoculation (dpi), 21 dpi and 28 dpi by measuring the length of the necrosis on the second leaf blade. The intensity of infection was then determined as a percentage of the total length of 2nd leaf blade.
(§7) The fungicide efficacies were determined from the Area Under the Disease Progress Curve (AUDPC) values and expressed as a percentage of the untreated control.
(§8) The AUDPC is a quantitative measure of disease intensity over time. The most commonly used method for estimating the AUDPC, the trapezoidal method, is performed by multiplying the average disease intensity between each pair of adjacent timepoints by the corresponding time interval and this for each time interval. The AUDPC is determined with the following formula by adding all of the trapezoids:
(§9) [formula] • yi=disease severity at the ith observation • ti=time (days) at the ith observation • N=total number of observations

[2] = system: Zymoseptoria tritici strain Zt StA; assay: In planta preventive efficacy on wheat cv. Alixan against Zymoseptoria tritici strain Zt StA (control strain, sensitive); conditions: for Disease Severity Intensity: % of length of 2nd leaf blade, preventive 24 h; for AUDPC: control 781.6
Description: as §1, §2, §3, §4, §5, §6, §7, §8, §9

[3] = system: Zymoseptoria tritici strain Zt 61; assay: In planta preventive efficacy on wheat cv. Alixan against Zymoseptoria tritici strain Zt 61; set-up: fungicide efficacy: concentration or dose not given beside the values; conditions: for Disease Severity Intensity: % of length of 2nd leaf blade, preventive 24 h; for AUDPC: control 1194.9
Description: as §1, §2, §3, §4, §5, §6, §7, §8, §9

[4] = system: Zymoseptoria tritici strain Zt 99; assay: In planta preventive efficacy on wheat cv. Alixan against Zymoseptoria tritici strain Zt 99; conditions: for Disease Severity Intensity: % of length of 2nd leaf blade, preventive 24 h; for AUDPC: control 1352.9
Description: as §1, §2, §3, §4, §5, §6, §7, §8, §9

[5] = system: Zymoseptoria tritici strain Zt 19-52; assay: In planta preventive efficacy on wheat cv. Alixan against Zymoseptoria tritici strain Zt 19-52; conditions: % of length of 2nd leaf blade, preventive 24 h
Description: as §1, §2, §3, §4, §5, §6, §7, §8, §9

[6] = system: Zymoseptoria tritici strain Zt 38-02; assay: In planta preventive efficacy on wheat cv. Alixan against Zymoseptoria tritici strain Zt 38-02; conditions: for Disease Severity Intensity: % of length of 2nd leaf blade, preventive 24 h; for AUDPC: control 1261.4
Description: as §1, §2, §3, §4, §5, §6, §7, §8, §9

[7] = 15 dpi, rate N (g a.i./ha): ADF-16 100, penthiopyrad 200, metconazole 90, tebuconazole 250, control also no disease
[8] = 15 dpi, rate N/2.5 (g a.i./ha): ADF-16 40, penthiopyrad 80, metconazole 36, tebuconazole 100, control also no disease
[9] = rate N (g a.i./ha): ADF-16 100, penthiopyrad 200, metconazole 90, tebuconazole 250
[10] = rate N/2.5 (g a.i./ha): ADF-16 40, penthiopyrad 80, metconazole 36, tebuconazole 100

CC1(C)CCC(Cc2ccc(Cl)cc2)C1(O)Cn1cncn1 (centres unmarked) [Metconazole]
Disease Severity Intensity [1, 7]: No disease
Disease Severity Intensity [1, 8]: No disease
Disease Severity Intensity ([1]; 21 dpi, rate N (g a.i./ha): ADF-16 100, penthiopyrad 200, metconazole 90, tebuconazole 250, control 77.2): 1.9 +/− 0.7cd %
Disease Severity Intensity ([1]; 21 dpi, rate N/2.5 (g a.i./ha): ADF-16 40, penthiopyrad 80, metconazole 36, tebuconazole 100, control 77.2): 15.1 +/− 2.8b %
Disease Severity Intensity ([1]; 28 dpi, rate N (g a.i./ha): ADF-16 100, penthiopyrad 200, metconazole 90, tebuconazole 250, control 95.5): 33.0 +/− 3.6d %
Disease Severity Intensity ([1]; 28 dpi, rate N/2.5 (g a.i./ha): ADF-16 40, penthiopyrad 80, metconazole 36, tebuconazole 100, control 95.5): 78.0 +/− 5.0b %
Disease Severity Intensity [2, 7]: No disease
Disease Severity Intensity [2, 8]: No disease
Disease Severity Intensity ([2]; 21 dpi, rate N (g a.i./ha): ADF-16 100, penthiopyrad 200, metconazole 90, tebuconazole 250, control 36.5): 0.0 +/− 0.0b %
Disease Severity Intensity ([2]; 21 dpi, rate N/2.5 (g a.i./ha): ADF-16 40, penthiopyrad 80, metconazole 36, tebuconazole 100, control 36.5): 0.0 +/− 0.0b %
Disease Severity Intensity ([2]; 28 dpi, rate N (g a.i./ha): ADF-16 100, penthiopyrad 200, metconazole 90, tebuconazole 250, control 77.4): 0.0 +/− 0.0b %
Disease Severity Intensity ([2]; 28 dpi, rate N/2.5 (g a.i./ha): ADF-16 40, penthiopyrad 80, metconazole 36, tebuconazole 100, control 77.4): 0.0 +/− 0.0b %
Efficacy (from AUDPC, percentage of the untreated control) [2, 9]: 100%
AUDPC [2, 9]: 0.0 +/− 0.0b
Efficacy (from AUDPC, percentage of the untreated control) [2, 10]: 100%
AUDPC [2, 10]: 0.0 +/− 0.0b
Disease Severity Intensity [3, 7]: No disease
Disease Severity Intensity [3, 8]: No disease
Disease Severity Intensity ([3]; 21 dpi, rate N/2.5 (g a.i./ha): ADF-16 40, penthiopyrad 80, metconazole 36, tebuconazole 100, control 63.3): 10.1 +/− 1.6c %
Disease Severity Intensity ([3]; 28 dpi, rate N (g a.i./ha): ADF-16 100, penthiopyrad 200, metconazole 90, tebuconazole 250, control 88.1): 35.1 +/− 3.8d %
Disease Severity Intensity ([3]; 28 dpi, rate N/2.5 (g a.i./ha): ADF-16 40, penthiopyrad 80, metconazole 36, tebuconazole 100, control 88.1): 65.6 +/− 4.2bc %
fungicide efficacy ([3]; higher application rates (N)): ≥ 85%
fungicide efficacy ([3]; lower application rates (N/2.5)): ≤ 70%
Efficacy (from AUDPC, percentage of the untreated control) [3, 9]: 85.9%
AUDPC [3, 9]: 168.8 +/− 45.4cd
Efficacy (from AUDPC, percentage of the untreated control) [3, 10]: 68.9%
AUDPC [3, 10]: 371.8 +/− 48.7b
Disease Severity Intensity ([4]; 15 dpi, rate N (g a.i./ha): ADF-16 100, penthiopyrad 200, metconazole 90, tebuconazole 250, control 47.9): 0.0 +/− 0.0d %
Disease Severity Intensity ([4]; 15 dpi, rate N/2.5 (g a.i./ha): ADF-16 40, penthiopyrad 80, metconazole 36, tebuconazole 100, control 47.9): 1.3 +/− 1.2d %
Disease Severity Intensity ([4]; 21 dpi, rate N (g a.i./ha): ADF-16 100, penthiopyrad 200, metconazole 90, tebuconazole 250, control 81.0): 18.2 +/− 2.6d %
Disease Severity Intensity ([4]; 21 dpi, rate N/2.5 (g a.i./ha): ADF-16 40, penthiopyrad 80, metconazole 36, tebuconazole 100, control 81.0): 58.7 +/− 2.8c %
Disease Severity Intensity ([4]; 28 dpi, rate N (g a.i./ha): ADF-16 100, penthiopyrad 200, metconazole 90, tebuconazole 250, control 92.2): 86.3 +/− 2.4ab %
Disease Severity Intensity ([4]; 28 dpi, rate N/2.5 (g a.i./ha): ADF-16 40, penthiopyrad 80, metconazole 36, tebuconazole 100, control 92.2): 84.6 +/− 4.3b %
Efficacy (from AUDPC, percentage of the untreated control) [4, 9]: 69.0%
AUDPC [4, 9]: 419.9 +/− 29.6e
Efficacy (from AUDPC, percentage of the untreated control) [4, 10]: 48.9%
AUDPC [4, 10]: 691.1 ± 28.1 days
Disease Severity Intensity ([5]; 15 dpi, rate N (g a.i./ha): ADF-16 100, penthiopyrad 200, metconazole 90, tebuconazole 250, control 22.0): 0.0 +/− 0.0b %
Disease Severity Intensity ([5]; 15 dpi, rate N/2.5 (g a.i./ha): ADF-16 40, penthiopyrad 80, metconazole 36, tebuconazole 100, control 22.0): 0.0 +/− 0.0b %
Disease Severity Intensity ([5]; 21 dpi, rate N (g a.i./ha): ADF-16 100, penthiopyrad 200, metconazole 90, tebuconazole 250, control 81.7): 0.3 +/− 0.2c %
Disease Severity Intensity ([5]; 21 dpi, rate N/2.5 (g a.i./ha): ADF-16 40, penthiopyrad 80, metconazole 36, tebuconazole 100, control 81.7): 2.1 +/− 0.8b %
Disease Severity Intensity ([5]; 28 dpi, rate N (g a.i./ha): ADF-16 100, penthiopyrad 200, metconazole 90, tebuconazole 250, control 91.0): 12.0 +/− 1.9c %
Disease Severity Intensity ([5]; 28 dpi, rate N/2.5 (g a.i./ha): ADF-16 40, penthiopyrad 80, metconazole 36, tebuconazole 100, control 91.0): 22.4 +/− 2.3b %
Disease Severity Intensity ([6]; 15 dpi, rate N (g a.i./ha): ADF-16 100, penthiopyrad 200, metconazole 90, tebuconazole 250, control 36.0): 0.0 +/− 0.0b %
Disease Severity Intensity ([6]; 15 dpi, rate N/2.5 (g a.i./ha): ADF-16 40, penthiopyrad 80, metconazole 36, tebuconazole 100, control 36.0): 1.7 +/− 0.9b %
Disease Severity Intensity ([6]; 21 dpi, rate N (g a.i./ha): ADF-16 100, penthiopyrad 200, metconazole 90, tebuconazole 250, control 84.3): 25.6 +/− 3.9d %
Disease Severity Intensity ([6]; 21 dpi, rate N/2.5 (g a.i./ha): ADF-16 40, penthiopyrad 80, metconazole 36, tebuconazole 100, control 84.3): 61.8 +/− 2.5bc %
Disease Severity Intensity ([6]; 28 dpi, rate N (g a.i./ha): ADF-16 100, penthiopyrad 200, metconazole 90, tebuconazole 250, control 95.7): 82.4 +/− 3.4c %
Disease Severity Intensity ([6]; 28 dpi, rate N/2.5 (g a.i./ha): ADF-16 40, penthiopyrad 80, metconazole 36, tebuconazole 100, control 95.7): 92.1 +/− 1.2b %
Efficacy (from AUDPC, percentage of the untreated control) [6, 9]: 64.0%
AUDPC [6, 9]: 454.7 +/− 29.0c
Efficacy (from AUDPC, percentage of the untreated control) [6, 10]: 41.1%
AUDPC [6, 10]: 743.0 +/− 14.9b
